Results taken from patent US7335669B2, “Use of dihydroquinoline to aid in increasing milk production and feed utilization” (Novus International, Inc., priority 2002, dated 2008).

Assays:
[1] = test system: broilers and layers; conditions: cited from earlier work
[2] = test system: cows; assay: Example 1: two-week feeding regimen at four ethoxyquin concentration levels, twenty-four cows; format: in vivo
Source text: Each of twenty-four cows was randomly assigned to a feeding regimen of one of four concentration levels of ethoxyquin (0 ppm, 50 ppm, 100 ppm, and 150 ppm by weight on an as fed basis) for a two-week treatment period. Data were collected before and after the feeding regimen. The results were as follows, wherein the ethoxyquin concentration (“Ethox. Dose”) is presented in ppm by weight, on an as fed basis and “TMR” represents the total mixed ration consumed by the cows in pounds per day: […]

[3] = test system: lactating dairy cows; assay: Example 2: switch-over pen trial, ethoxyquin 65 ppm in feed for three weeks, approximately 2400 lactating dairy cows; format: in vivo
Source text: Approximately 2400 lactating dairy cows were divided into two treatment groups of four pens per group. The cows in one of the two groups were fed ethoxyquin (at a concentration of 65 ppm by weight based on the weight of the total feed fed to the cows) for three weeks, with the four pens of the other group serving as controls. For the next two weeks, neither of the groups was fed ethoxyquin. The pens were then switched so that the previous control group was fed ethoxyquin (at a concentration of 65 ppm by weight based on the weight of the total feed fed to the cows) for three weeks. Milk production and feed intake were measured and feed efficiencies were calculated. The following table reports the means and pooled SEM results after correction for pen effects (wherein “Treated” refers to the cows receiving the ethoxyquin): […]

[4] = about 125 to about 150 ppm by weight on DMI basis in diet of dairy cattle; cited from earlier work
[5] = poultry and lambs, dietary ethoxyquin; cited from earlier work
[6] = Detection of ethoxyquin in milk from cattle treated by the method; format: in vivo
Source text: Of course, measurement of chemical levels has limitations. […] In any event, the level of ethoxyquin in the milk produced according to this invention certainly is less than 0.1 ppm by weight.

[7] = ethoxyquin 50 ppm by weight as fed basis
[8] = ethoxyquin 100 ppm as fed basis
[9] = ethoxyquin 100 ppm by weight as fed basis
[10] = ethoxyquin 150 ppm as fed basis
[11] = ethoxyquin 150 ppm by weight as fed basis
[12] = ethoxyquin 65 ppm by weight of total feed, three weeks, mean after correction for pen effects

## CCOc1ccc2c(c1)C(C)=CC(C)(C)N2 [ethoxyquin, 6-ethoxy-1,2-dihydro-2,2,4-trimethylquinoline]
[1]; broiler study, 150 ppm ethoxyquin in feed
  Effectiveness relative to alpha-tocopherol acetate: as effective as about 15 ppm alpha-tocopherol acetate
[1]; dietary ethoxyquin, broilers 75 to 150 ppm, layers 500 ppm in feed
  Lipid oxidation in muscle tissues: prevent lipid oxidation in muscle tissues in broilers and layers
[2]; 50 ppm vs 150 ppm by weight, as fed basis
  Enhancement of milk production, comparison of concentrations: 50 ppm has yielded greater enhancement of milk production than has 150 ppm
[2]; ethoxyquin 50 ppm as fed basis
  Feed Intake (as fed basis), TMR in First Week: 91 pounds per day
  Milk Production Based on Feed Efficiency, Lbs. Milk / TMR in First Week: 0.87 lbs. Milk Produced/pounds TMR Intake
  Feed Intake (as fed basis), TMR in Second Week: 91 pounds per day
  Milk Production Based on Feed Efficiency, Lbs. Milk / TMR in Second Week: 0.91 lbs. Milk Produced/pounds TMR Intake
[2]; [7]
  Milk Produced During First Week: 79 lbs./day
  Milk Produced During Second Week: 82 lbs./day
[2]; [8]
  Feed Intake (as fed basis), TMR in First Week: 92 pounds per day
  Milk Production Based on Feed Efficiency, Lbs. Milk / TMR in First Week: 0.80 lbs. Milk Produced/pounds TMR Intake
  Feed Intake (as fed basis), TMR in Second Week: 91 pounds per day
  Milk Production Based on Feed Efficiency, Lbs. Milk / TMR in Second Week: 0.79 lbs. Milk Produced/pounds TMR Intake
[2]; [9]
  Milk Produced During First Week: 74 lbs./day
  Milk Produced During Second Week: 72 lbs./day
[2]; [10]
  Feed Intake (as fed basis), TMR in First Week: 92 pounds per day
  Milk Production Based on Feed Efficiency, Lbs. Milk / TMR in First Week: 0.76 lbs. Milk Produced/pounds TMR Intake
  Feed Intake (as fed basis), TMR in Second Week: 92 pounds per day
  Milk Production Based on Feed Efficiency, Lbs. Milk / TMR in Second Week: 0.80 lbs. Milk Produced/pounds TMR Intake
[2]; [11]
  Milk Produced During First Week: 70 lbs./day
  Milk Produced During Second Week: 74 lbs./day
[3]; ethoxyquin 65 ppm
  Difference in milk production, treated vs control: little difference in milk production
[3]; ethoxyquin 65 ppm by weight of total feed, three weeks, calculated from milk production and feed intake
  Feed Efficiency As Fed Basis: 0.89
[3]; [12]
  Feed Intake As Fed Basis: 93.5 lbs./day
  Feed Intake DMI Basis: 60.3 lbs./day
  Milk Production: 83.4 lbs./day
[3]; ethoxyquin 65 ppm vs control, printed as on a dry matter basis
  Improvement in feed efficiency (pounds of milk produced per pounds of TMR intake): 4.7%
[4]
  Ethoxyquin residue in milk: appearance of ethoxyquin in the fat of the resulting milk
[5]
  Ethoxyquin in muscle tissue: detected in the muscle tissue of poultry and lambs
[6]; milk from cattle treated by the method of the invention
  Ethoxyquin detected in milk: no ethoxyquin has been detected
[6]; milk produced according to the invention
  Level of ethoxyquin in the milk: less than 0.1 ppm by weight
